In patent publication US12582616B2, “Molecular targets for modulation of dissociative and associative states” (The Board of Trustees of the Leland Stanford Junior …, priority 2020, dated 2026):
Entries after “also recorded” stand apart in the source; their conditions may differ.

What was measured:
[1] = test system: retrosplenial cortex (RSP); experiment: Two-photon imaging of retrosplenial cortex; assay type: in vivo, mouse
Method: Mice were anesthetized with isoflurane and the skull above retrosplenial cortex was removed and replaced with a 7 mm circular glass coverslip. For layer 1 experiments, Thy1GcaMP6s mice were used. For layer 2/3 experiments, Cux2-CreER; Ai148 mice were used (tamoxifen dissolved in corn oil was injected intraperitoneally at 0.1 mg/g at least 2 weeks prior to imaging). For layer 5 experiments, Rbp4-Cre mice were injected locally in retrosplenial with 800 nL AAVdj-Ef1a-DIO-GCaMP6f (titer 5E12) at stereotactic coordinates (−3AP, 0.5ML, −0.6DV). Mice were given >=1 week to recover before imaging. Awake, head-fixed imaging was performed on a standard two photon microscope (NeuroLabWare, Los Angeles, CA). A 16x 0.8 NA Nikon objective was immersed in clear ultrasound gel for imaging (Aquasonic, Parker Laboratories); frame rate of 30 Hz. Although we observed oscillations in RSP with 50 mg/kg, we were concerned that 50 mg/kg may be too low a dose to sensitively detect a potentially weaker signal in visual cortex or layer 2/3, and so we used 80 mg/kg in these experiments.
Two-photon tiff stack videos were registered to the average image using the TurboReg ImageJ plug-in using rigid body transformations. […] Contaminating neuropil signal was estimated from an annulus surrounding each soma mask and removed using the function F(t)=Fsoma(t)-0.3*Fneuropil(t), where Fsoma(t) is the somatic DF/F and Fneuropil(t) is the DF/F from an annulus 4 pixels wide surrounding each soma mask. The resulting traces were detrended and z-scored. The full frame fluorescence (used for quantifying layer 1 neuropil oscillations) was computed by summing all of the pixels in each frame on each time point, and then computing DF/F the same way, with no neuropil subtraction step.
Each trace (corresponding to either a fiber photometry signal, a cellular two-photon signal, a widefield regional centroid, a widefield pixel, an sEEG trace, or a smoothed spike rate Neuropixels trace) was z-scored, and the power spectral density (PSD) was then estimated using Welch's method (pwelch( ) in Matlab), with a window size of 10*fs (15*fs for human sEEG) where fs is the sampling rate of the signal. The average band power within a specified band (i.e. 1-3 Hz) was then computed by integrating the PSD estimate (bandpower in Matlab). For displaying the traces of individual cells, traces were each zscored by subtracting the mean value of the trace (across the whole recorded time window) and dividing by the standard deviation of the trace. Unless otherwise indicated, the PSD was computed across the time window from minutes 10 to 11 post-injection.

[2] = test system: mice; experiment: Tail suspension test; assay type: in vivo, mouse
Method: Tail Suspension Test: Mouse activity was recorded using a 60 Hz web camera. Struggling activity was quantified for minutes 2-10. […] Illumination began 30 seconds before tails were secured with tape and suspended from the beam. Mice were excluded if they climbed on their own tails.

[3] = test system: mice; experiment: Resident-intruder social interaction assay; assay type: in vivo, mouse; details: ketamine, both channel-knockouts vs wild-type
Method: Social Interaction Assay: Resident-intruder social interaction was recorded for two minutes. Interactions were defined as close physical proximity behaviors, including sniffing, touching, and following. […] Illumination began 30 seconds before the same-sex intruder mouse was introduced.

[4] = test system: mice; experiment: Open field test; assay type: in vivo, mouse; details: 5 min session, compared with saline
From the text: Open Field Test: Mice were placed in an evenly illuminated 50 cm×50 cm open field test box. Mouse position was captured using a webcam and Viewer software (Biobserve).

[5] = test system: retrosplenial cortex (RSP); experiment: Retrosplenial gene disruption (HCN1, GRIN1) and fiber photometry; assay type: in vivo, mouse
Method: A 405 nm and 470 nm LED illumination (Thorlabs) was combined (425 nm longpass, Thorlabs DMLP425) and coupled into a fiber optic patch cord (400 μm diameter, 0.48 NA, Doric Lenses) using a longpass dichroic (505 nm, Thorlabs DMLP505) and a fixed-focused coupler/collimator with a standard FC connector (F240FC-A, NA 0.51, f=7.9 mm)^47,48. Each illumination channel was frequency modulated using the sync output from a lock-in amplifier (SR810 DSP, Stanford Research Systems).
Analysis was performed using custom MATLAB (MathWorks) scripts. Widefield imaging videos were registered to a 2D top-projection atlas generated from the annotated Allen Brain Atlas volume, version CCFv2, in MATLAB (MathWorks), using an affine transformation computed from four manually selected control points. Each video was DF/F normalized, using the median for each pixel over the entire time series as F. The 410 nm channel was then temporally smoothed using a moving average (width=400 ms). The smoothed 410 nm DF/F signal for each pixel was regressed onto the 488 nm DF/F signal for the corresponding pixel, and the regression coefficients were used to scale the 410 nm channel to the 488 nm channel. This scaled 410 nm DF/F signal was then subtracted from the 488 nm DF/F signal to produce a normalized signal for each pixel. For quantification, activity traces were extracted from points centered in five cortical regions (visual, somatosensory, parietal, motor, retrosplenial) on the left hemisphere of the brain. The video data was Gaussian smoothed spatially (radius=2 pixels). Similarly, for fiber photometry recordings, the 410 nm signal was regressed onto the 488 nm signal, the 410 nm signal was scaled by the regression coefficients, and then subtracted from the 488 nm signal.
Stereotaxic Surgery: Adult male and female HCN1^f/f, NR1^f/f, or wildtype C57/BI6 were injected bilaterally in two retrosplenial locations (AP −3.1 and −3.4, ML+/−0.5, DV −0.5) with 1 uL of AAV8-Ef1 a-mCherry-IRES-Cre (titer 5E11) and AAVdj-Ef1a-DIO-GCaMP6m (titer 1E13). A 400-micron optical fiber was implanted over one injection location. […]

[6] = test system: mice; experiment: Observation for seizure-like behavior after dissociative doses; assay type: in vivo, mouse; details: dissociative doses of ketamine
From the text: One characteristic of seizures is increased synchrony. While the ketamine-induced rhythm involved increased synchrony in neuronal firing, the initiation, spread, maintenance/termination, and behavior were distinguishable from typical seizures.

[7] = test system: humans; details: human; cited from earlier work
[8] = test system: mouse; details: cited from earlier work

Compound: CNC1(c2ccccc2Cl)CCCCC1=O (stereo not drawn) [ketamine]
- oscillation and population synchrony in layer 2/3 RSP neurons ([1]; Cux2-CreER mice, after ketamine): neither oscillating neurons nor population synchrony were observed
- synchronous activity in layer 5 RSP neurons ([1]; Rbp4-Cre mice, after ketamine): exhibited synchronous activity
- spread of ketamine-rhythm across layers and regions ([1]; Supplementary Note 2): did not spread beyond layer 5 neurons in retrosplenial cortex
- oscillation in superficial neuropil, RSP vs neighboring visual cortex ([1]; two-photon, cranial window, 80 mg/kg): observed the oscillation in RSP but not neighboring visual cortex
- tail-suspension escape responses ([2]; ketamine >=25 mg/kg): similarly suppressed tail-suspension escape responses
- tail suspension-escape behavior ([2]; ketamine, both channel-knockouts vs wild-type): modestly-recovered tail suspension-escape behavior
- resident-intruder social interactions [3]: modestly-recovered
- open-field locomotion velocity [4]: decreased velocity
- ketamine-induced RSP oscillation ([5]; local GRIN1 (NMDAR) knockout in RSP): significantly diminished; also recorded: partially attenuated; also recorded: Reduced ketamine-induced oscillation-power
- ketamine-induced RSP oscillation ([5]; local HCN1 knockout in RSP): significantly diminished; also recorded: selectively abolished both the ketamine-induced rhythm and dissociation-like behavioral effects; also recorded: no longer induced the deep retrosplenial rhythm; also recorded: Reduced ketamine-induced oscillation-power
- ketamine-induced RSP oscillation ([5]; wild-type): preserved in wild-type
- seizure-like signs (rigidity, convulsive movements, absence-like states, salivation/rearing/falling) [6]: no rigidity, convulsive movements, absence-like states, or salivation/rearing/falling were observed
- dose at which humans consistently report potent dissociation [7]: 2 to 3 mg/kg
- typical dose for anti-depressant effects [7]: 0.3 to 1 mg/kg
- typical dose for anti-depressant effects [8]: 3 to 10 mg/kg
